From patent publication US6632829B2, “Sulfonamides and derivatives thereof that modulate the activity of endothelin” (Texas Biotechnology Corp., priority 1996, dated 2003) come the findings set out here.

Assay [1] concerns the target T1, human ETA receptors (Homo sapiens, UniProt P25101).
T1 construct: endogenous in cells; host or cells: TE 671 cells (ATCC HTB 139), membrane preparation
T1 sequence (P25101 21-427): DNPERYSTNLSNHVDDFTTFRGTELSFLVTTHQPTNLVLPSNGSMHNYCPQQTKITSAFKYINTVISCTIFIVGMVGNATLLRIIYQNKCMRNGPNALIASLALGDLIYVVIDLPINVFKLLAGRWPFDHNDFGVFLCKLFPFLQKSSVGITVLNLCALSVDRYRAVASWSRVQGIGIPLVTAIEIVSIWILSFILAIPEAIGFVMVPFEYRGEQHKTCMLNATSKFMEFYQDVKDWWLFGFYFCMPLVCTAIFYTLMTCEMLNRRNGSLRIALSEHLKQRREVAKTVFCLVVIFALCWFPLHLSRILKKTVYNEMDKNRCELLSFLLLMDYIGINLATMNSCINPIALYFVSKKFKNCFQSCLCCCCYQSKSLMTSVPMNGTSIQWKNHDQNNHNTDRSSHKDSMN
The experiment in a line: Endothelin binding inhibition, Binding Test #1: competition with 125I-ET-1 for ETA receptors on TE 671 cell membranes.

Assay [2] concerns the target T2, human ETB receptor (Homo sapiens, UniProt P24530).
T2 construct: expressed in transfected cells; host or cells: COS7 cells
T2 sequence (P24530 27-442): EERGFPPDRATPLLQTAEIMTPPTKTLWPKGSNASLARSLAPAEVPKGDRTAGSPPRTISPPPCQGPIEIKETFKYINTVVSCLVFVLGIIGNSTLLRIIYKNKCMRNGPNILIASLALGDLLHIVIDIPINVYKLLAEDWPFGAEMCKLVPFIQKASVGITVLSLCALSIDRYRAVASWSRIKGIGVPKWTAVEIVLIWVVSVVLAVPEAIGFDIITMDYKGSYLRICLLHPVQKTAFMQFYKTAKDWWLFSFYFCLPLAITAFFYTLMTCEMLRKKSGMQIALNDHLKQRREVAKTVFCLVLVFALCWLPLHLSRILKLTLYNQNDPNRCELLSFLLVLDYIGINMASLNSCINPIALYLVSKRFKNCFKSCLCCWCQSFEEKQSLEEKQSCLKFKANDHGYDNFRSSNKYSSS
The experiment in a line: Endothelin binding inhibition, Binding Test #2: competition with 125I-ET-1 for ETB receptors on transfected COS7 cell membranes. The essentials:
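Membranes from COS7 cells transfected with human ETB receptor, prepared in HEPES pH 7.4 with aprotinin, MnCl2/DNase treatment at 37° C for 30 min. Test compounds compete with 125I-labeled ET-1 for receptor binding; membrane used at 1 μg/50 μL binding buffer.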

[3] abbreviates: incubation at 24° C. (values marked †).
The mark [4] stands for this setting: incubation at 4° C. (values without †).

On to `Cc1cc(C)c(C=CCc2ccsc2S(=O)(=O)Nc2onc(C)c2Br)c(C)c1` [N-(4-bromo-3-methyl-5-isoxazolyl)-3-(2,4,6-trimethylcinnamyl)thiophene-2-sulfonamide], for which the concentration for half-maximal inhibition (IC50) is 0.049 µM in assay [1] (setting [3]) and 1.86 µM in assay [2] (setting [3]).
Regarding `COC(=O)c1cc(C)c(NC(=O)c2sccc2S(=O)(=O)Nc2onc(C)c2Cl)c(C)c1` [N-(4-chloro-3-methyl-5-isoxazolyl)-2-[(4-methoxycarbonyl-2,6-dimethyl)phenylaminocarbonyl]thiophene-3-sulfonamide], the half-inhibitory concentration (IC50) worked out at 0.000266 µM in assay [1] (setting [3]) and 9.78 µM in assay [2] (setting [3]).
As for “3-[N-(Benzo-2,1,3-thiadiazol-5-yl)aminosulfonyl]thiophene-2-carboxylic acid, 3-cyanomethyl-2,4,6-trimethylanilide”, the half-maximal inhibitory concentration (IC50) in assay [1] (setting [3]) came to 0.00066 µM; in assay [2] (setting [3]) it was 9.55 µM.
On to `Cc1cc(CCC(C)C)ccc1-c1ccsc1S(=O)(=O)Nc1onc(C)c1Br` [N-(4-bromo-3-methyl-5-isoxazolyl)-3-(4-iso-pentyl-2-methylphenyl)thiophene-2-sulfonamide], for which the concentration for half-maximal inhibition (IC50) in assay [1] (setting [3]) was 0.107 µM; in assay [2] (setting [3]), 2.4 µM.
As to `Cc1noc(NS(=O)(=O)c2sccc2-c2ccc(CC(C)C)cc2)c1Br` [N-(4-bromo-3-methyl-5-isoxazolyl)-3-(4-iso-butylphenyl)thiophene-2-sulfonamide], the values for the half-inhibitory concentration (IC50) in assay [1] (setting [3]) and in assay [2] (setting [3]) were 0.0823 µM and 2.76 µM, respectively.
Regarding `Cc1noc(NS(=O)(=O)c2ccsc2C(=O)Cc2ccc3c(c2)OCO3)c1Cl` [N-(4-chloro-3-methyl-5-isoxazolyl)-2-[3,4-(methylenedioxy)phenylacetyl]thiophene-3-sulfonamide], the IC50 in assay [1] (setting [3]) is 0.021 µM; in assay [2] (setting [3]), 6.5 µM.
As to `Cc1cc(C)cc(CC(=O)c2sccc2S(=O)(=O)Nc2onc(C)c2Cl)c1` [N-(4-chloro-3-methyl-5-isoxazolyl)-2-(3,5-dimethylphenylacetyl)thiophene-3-sulfonamide], the figures for the IC50 in assay [1] (setting [3]) and in assay [2] (setting [3]) were 0.045 µM and 17.7 µM, respectively.
With `Cc1noc(NS(=O)(=O)c2ccsc2C(=O)C(O)c2ccc3c(c2)OCO3)c1Cl` (stereo not drawn) [N-(4-chloro-3-methyl-5-isoxazolyl)-2-{α-hydroxy-[3,4-(methylenedioxy)phenyl]acetyl}thiophene-3-sulfonamide], the values for the IC50 in assay [1] (setting [3]) and in assay [2] (setting [3]) were 2.5 µM and 30 µM, respectively.
As to `CCCc1cc2c(cc1OC(=O)c1sccc1S(=O)(=O)Nc1onc(C)c1Br)OCO2` [N-(4-bromo-3-methyl-5-isoxazolyl)-2-{[2-propyl-4,5-(methylenedioxy)phenoxy]carbonyl}thiophene-3-sulfonamide], the half-inhibitory concentration (IC50) in assay [1] (setting [3]) worked out at 0.138 µM; in assay [2] (setting [3]) it was 11.9 µM.
Turning to `Cc1ccc(OCc2sccc2S(=O)(=O)Nc2onc(C)c2Br)cc1` [N-(4-bromo-3-methyl-5-isoxazolyl)-2-[(4-methylphenoxy)methyl]thiophene-3-sulfonamide], the IC50 in assay [1] (setting [3]) was determined as 1.2 µM; in assay [2] (setting [3]) it was 15 µM.
As to “N-(4-chloro-3-methyl-5-isoxazolyl)-2-phenylbenzo[b]thiophene sulfonamide”, the half-maximal inhibitory concentration (IC50) in assay [1] (setting [3]) was found to be 0.932 µM; in assay [2] (setting [3]) it was 46.8 µM.
On to `CCCc1cc2c(cc1OCc1ccsc1S(=O)(=O)Nc1onc(C)c1Br)OCO2` [N-(4-bromo-3-methyl-5-isoxazolyl)-3-{[2-propyl-4,5-(methylenedioxy)phenoxy]methyl}thiophene-2-sulfonamide], for which the IC50 in assay [1] (setting [3]) is ~0.2 µM; in assay [2] (setting [3]) it was ~1.5 µM.
With `COC(=O)c1sccc1S(=O)(=O)Nc1onc(C)c1Cl` [N-(4-chloro-3-methyl-5-isoxazolyl)-2-methoxycarbonylthiophene-3-sulfonamide], the IC50 in assay [1] (setting [4]) is 0.631 µM; in assay [2] (setting [4]), 53.2 µM.
As to `Cc1noc(NS(=O)(=O)c2ccsc2C(O)c2ccccc2)c1Br` (stereo not drawn) [N-(4-bromo-3-methyl-5-isoxazolyl)-2-(α-hydroxybenzyl)thiophene-3-sulfonamide], the IC50 in assay [1] (setting [4]) turned out to be 0.337 µM; in assay [2] (setting [4]) it was 9.37 µM.
Take `Cc1cc2c(cc1C=CCc1ccsc1S(=O)(=O)Nc1onc(C)c1Br)OCO2` [N-(4-bromo-3-methyl-5-isoxazolyl)-3-[2-methyl-4,5-(methylenedioxy)cinnamyl]thiophene-2-sulfonamide]: the values for the IC50 in assay [1] (setting [3]) and in assay [2] (setting [3]) were ~0.1 µM and ~6 µM, respectively.
On to `Cc1noc(NS(=O)(=O)c2ccsc2CC(O)c2ccc3c(c2)OCO3)c1Cl` (stereo not drawn) [N-(4-chloro-3-methyl-5-isoxazolyl)-2-[β-hydroxy(3,4-methylenedioxy)phenylethyl]thiophene-3-sulfonamide], for which the IC50 turned out to be 0.053 µM in assay [1] (setting [3]) and 16 µM in assay [2] (setting [3]).
For the molecule `Cc1noc(NS(=O)(=O)c2ccc(-c3cc4ccccc4s3)s2)c1Br` [N-(4-bromo-3-methyl-5-isoxazolyl)-5-(benzo[b]thien-2-yl)thiophene-2-sulfonamide], the IC50 came out at 16 µM in assay [1] (setting [3]) and 0.8 µM in assay [2] (setting [3]).
With `Cc1noc(NS(=O)(=O)c2ccsc2C(=O)Nc2cc3c(cc2OCCO)OCO3)c1Cl` [N-(4-chloro-3-methyl-5-isoxazolyl)-2-[3,4-(methylenedioxy)-6-(2-hydroxyethoxy)phenylaminocarbonyl]thiophene-3-sulfonamide], the figures for the concentration for half-maximal inhibition (IC50) in assay [1] (setting [3]) and in assay [2] (setting [3]) were ~0.01 µM and ~18 µM, respectively.
As for `Cc1noc(NS(=O)(=O)c2c(Cc3ccc4c(c3)OCO4)sc3ccccc23)c1Br` [N-(4-bromo-3-methyl-5-isoxazolyl)-2-[3,4-(methylenedioxy)benzyl]benzo[b]thiophene-3-sulfonamide], the IC50 in assay [1] (setting [4]) stood at 0.0015 ± 0.0014 µM; in assay [1] (setting [3]) it was 0.0074 ± 0.0011 µM; in assay [2] (setting [4]), 0.324 ± 0.78 µM; in assay [2] (setting [3]) it was 0.939 ± 0.262 µM.
On to `Cc1noc(NS(=O)(=O)c2ccsc2C(=O)Nc2ccc3c(c2)OCO3)c1Br` [N-(4-bromo-3-methyl-5-isoxazolyl)-2-[(3,4-methylenedioxyphenyl)aminocarbonyl]thiophene-3-sulfonamide], for which the figures for the 50% inhibitory concentration (IC50) in assay [1] (setting [3]) and in assay [2] (setting [3]) were 0.017 µM and 9.8 µM, respectively.
Regarding `CC(=O)OCc1c(C)cc(C)c(NC(=O)c2sccc2S(=O)(=O)Nc2onc(C)c2C)c1C` [N-(3,4-dimethyl-5-isoxazolyl)-2-(3-acetoxymethyl-2,4,6-trimethylphenylaminocarbonyl)thiophene-3-sulfonamide], the results for the IC50 in assay [1] (setting [3]) and in assay [2] (setting [3]) were 0.00097 µM and 156 µM, respectively.
As for `Cc1ccc(NC(=O)c2sccc2S(=O)(=O)Nc2onc(C)c2C)cc1` [N-(3,4-dimethyl-5-isoxazolyl)-2-[(4-methylphenyl)aminocarbonyl]thiophene-3-sulfonamide], the 50% inhibitory concentration (IC50) in assay [1] (setting [4]) stood at 0.00336 µM; in assay [2] (setting [4]), 11.3 µM.
`Cc1cccc(-c2ccsc2S(=O)(=O)Nc2onc(C)c2Br)c1` [N-(4-bromo-3-methyl-5-isoxazolyl)-3-(3-tolyl)thiophene-2-sulfonamide]: the IC50 came to 0.832 µM in assay [1] (setting [3]) and 21.2 µM in assay [2] (setting [3]).
`Cc1ccc(C=CCc2ccsc2S(=O)(=O)Nc2onc(C)c2Br)c(C)c1` [N-(4-bromo-3-methyl-5-isoxazolyl)-3-(2,4-dimethylcinnamyl)thiophene-2-sulfonamide]: the values for the half-maximal inhibitory concentration (IC50) in assay [1] (setting [3]) and in assay [2] (setting [3]) were 0.18 µM and 2.97 µM, respectively.
In the case of `Cc1cc(C)c(NC(=O)c2sccc2S(=O)(=O)Nc2onc(C)c2C)c(C)c1CO` [N-(3,4-dimethyl-5-isoxazolyl)-2-(3-hydroxymethyl-2,4,6-trimethylphenylaminocarbonyl)thiophene-3-sulfonamide], the values for the IC50 in assay [1] (setting [3]) and in assay [2] (setting [3]) were 0.00111 µM and 33.8 µM, respectively.
Turning to `COc1ccc(NC(=O)c2sccc2S(=O)(=O)Nc2onc(C)c2Cl)c(OC)c1` [N-(4-chloro-3-methyl-5-isoxazolyl)-2-[(2,4-dimethoxyphenyl)aminocarbonyl]thiophene-3-sulfonamide], the values for the 50% inhibitory concentration (IC50) in assay [1] (setting [3]) and in assay [2] (setting [3]) were 0.158 µM and 63.1 µM, respectively.
With `Cc1noc(NS(=O)(=O)c2ccsc2C(=O)Nc2cc3c(cc2CC(=O)N(C)C)OCO3)c1Cl` [N-(4-chloro-3-methyl-5-isoxazolyl)-2-{2-[(dimethylamino)carbonylmethyl]-4,5-(methylenedioxy)phenylaminocarbonyl}thiophene-3-sulfonamide], the IC50 in assay [1] (setting [3]) came to 0.009 µM; in assay [2] (setting [3]) it was 13.8 µM.
The like results for `Cc1noc(NS(=O)(=O)c2ccsc2C(=O)Nc2c(CC#N)cc3c(c2CC#N)OCO3)c1Cl` [N-(4-chloro-3-methyl-5-isoxazolyl)-2-[2-cyanomethyl-4,5-(methylenedioxy)-6-cyanomethyl]phenylaminocarbonylthiophene-3-sulfonamide] were, in that order, 0.0038 µM and 25 µM.
Take `Cc1ccc(CC(=O)c2sccc2S(=O)(=O)Nc2onc(C)c2Cl)c(C)c1` [N-(4-chloro-3-methyl-5-isoxazolyl)-(2,4-dimethylphenylacetyl)thiophene-3-sulfonamide]: the IC50 in assay [1] (setting [3]) was found to be 0.0004 µM; in assay [2] (setting [3]), 4.8 µM.
